Results taken from ChEMBL document CHEMBL4396956 (Bioorg Med Chem, 2019).
Activity calls are given as the source filed them. The calls are words filed in the database; no cut-off is given here.

What was measured:
[1] = molecular target: Glucagon-like peptide 1 receptor (Homo sapiens, UniProt P43220); assay: Agonist activity at human GLP1 receptor expressed in HEK293 cells assessed as induction of cAMP levels after 20 mins by time-resolved fluorescence analysis; format: functional, cell-based
Mus musculus = assay: Antidiabetic activity in STZ-induced diabetic Kunming mouse assessed as hypoglycemic time duration for glycemia under 8.35 mmol/L at 25 nmol/kg, ip pretreated with STZ for 5 consecutive days and measured up to 48 hrs; format: functional
Rattus norvegicus [2] = assay: Antidiabetic activity in Sprague-Dawley rat assessed as decrease in glucose level at 25 nmol/kg, ip pretreated for 30 mins followed by glucose challenge and measured up to 180 mins by OGTT relative to control; format: functional, organism-based
Rattus norvegicus [3] = assay: Antidiabetic activity in Sprague-Dawley rat assessed as increase in insulin level at 25 nmol/kg, ip pretreated for 30 mins followed by glucose challenge and measured after 15 to 60 mins by ELISA method; format: functional

Sequence of Glucagon-like peptide 1 receptor (P43220 whole entry): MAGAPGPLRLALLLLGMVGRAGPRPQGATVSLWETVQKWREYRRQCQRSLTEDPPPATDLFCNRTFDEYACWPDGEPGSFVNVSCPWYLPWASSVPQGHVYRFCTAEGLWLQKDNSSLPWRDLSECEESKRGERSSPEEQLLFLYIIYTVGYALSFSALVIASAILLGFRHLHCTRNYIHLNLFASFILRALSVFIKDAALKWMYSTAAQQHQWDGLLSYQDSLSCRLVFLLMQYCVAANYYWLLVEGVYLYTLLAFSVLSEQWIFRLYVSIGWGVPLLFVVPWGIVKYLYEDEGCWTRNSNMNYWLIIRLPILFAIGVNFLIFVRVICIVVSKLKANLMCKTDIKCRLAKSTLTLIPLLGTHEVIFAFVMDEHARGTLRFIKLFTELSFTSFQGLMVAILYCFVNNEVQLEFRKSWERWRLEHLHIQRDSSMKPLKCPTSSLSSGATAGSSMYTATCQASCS

SMILES	EC50 [1] [nM]	Time (Mus musculus) [h]	Activity (Rattus norvegicus [2])	Activity (Rattus norvegicus [3]) [pmol/L]
CC[C@H](C)[C@H](NC(=O)[C@H](Cc1ccc(O)cc1)NC(=O)[C@H](CC(C)C)NC(=O)[C@H](CCCNC(=N)N)NC(=O)[C@@H](NC(=O)[C@H](C)NC(=O)[C@H](CCC(=O)O)NC(=O)[C@H](CCC(=O)O)NC(=O)[C@H](CCC(=O)O)NC(=O)[C@H](CCSC)NC(=O)[C@H](CCC(N)=O)NC(=O)[C@H](CCCCN)NC(=O)[C@H](CO)NC(=O)[C@H](CC(C)C)NC(=O)[C@H](CC(=O)O)NC(=O)[C@H](CO)NC(=O)[C@@H](NC(=O)[C@H](Cc1ccccc1)NC(=O)[C@@H](NC(=O)CNC(=O)[C@H](CCC(=O)O)NC(=O)CNC(=O)[C@@H](N)Cc1cnc[nH]1)[C@@H](C)O)[C@@H](C)O)C(C)C)C(=O)N[C@@H](CCC(N)=O)C(=O)N[C@@H](Cc1c[nH]c2ccccc12)C(=O)N[C@@H](CC(C)C)C(=O)N[C@@H](CCCCN)C(=O)N[C@@H](CCC(=O)O)C(=O)NCC(=O)NCC(=O)N1CCC[C@H]1C(=O)N[C@@H](CO)C(=O)N[C@@H](CO)C(=O)NCC(=O)N[C@@H](CCCNC(=N)N)C(=O)N1CCC[C@H]1C(=O)N1CCC[C@H]1C(=O)N1CCC[C@H]1C(=O)N[C@@H](CO)C(=O)N[C@@H](CSC1CC(=O)N(CCCCCCCCCCCC(=O)N[C@@H](CCC(=O)O)C(=O)O)C1=O)C(N)=O (stereo not given in full)	0.0202	–	–	–
CC[C@H](C)[C@H](NC(=O)[C@H](Cc1ccc(O)cc1)NC(=O)[C@H](CC(C)C)NC(=O)[C@H](CCCNC(=N)N)NC(=O)[C@@H](NC(=O)[C@H](C)NC(=O)[C@H](CCC(=O)O)NC(=O)[C@H](CCC(=O)O)NC(=O)[C@H](CCC(=O)O)NC(=O)[C@H](CCSC)NC(=O)[C@H](CCC(N)=O)NC(=O)[C@H](CSC1CC(=O)N(CCCCCCCCCCCC(=O)N[C@@H](CCC(=O)O)C(=O)O)C1=O)NC(=O)[C@H](CO)NC(=O)[C@H](CC(C)C)NC(=O)[C@H](CC(=O)O)NC(=O)[C@H](CO)NC(=O)[C@@H](NC(=O)[C@H](Cc1ccccc1)NC(=O)[C@@H](NC(=O)CNC(=O)[C@H](CCC(=O)O)NC(=O)CNC(=O)[C@@H](N)Cc1cnc[nH]1)[C@@H](C)O)[C@@H](C)O)C(C)C)C(=O)N[C@@H](CCC(N)=O)C(=O)N[C@@H](Cc1c[nH]c2ccccc12)C(=O)N[C@@H](CC(C)C)C(=O)N[C@@H](CCCCN)C(=O)N[C@@H](CCC(=O)O)C(=O)NCC(=O)NCC(=O)N1CCC[C@H]1C(=O)N[C@@H](CO)C(=O)N[C@@H](CO)C(=O)NCC(=O)N[C@@H](CCCNC(=N)N)C(=O)N1CCC[C@H]1C(=O)N1CCC[C@H]1C(=O)N1CCC[C@H]1C(=O)N[C@@H](CO)C(N)=O (stereo not given in full)	0.0182	–	–	–
CCCCCCCCCCCCCCCC(=O)N[C@@H](CCC(=O)NCCCC[C@H](NC(=O)[C@H](C)NC(=O)[C@H](C)NC(=O)[C@H](CCC(N)=O)NC(=O)CNC(=O)[C@H](CCC(=O)O)NC(=O)[C@H](CC(C)C)NC(=O)[C@H](Cc1ccc(O)cc1)NC(=O)[C@H](CO)NC(=O)[C@H](CO)NC(=O)[C@@H](NC(=O)[C@H](CC(=O)O)NC(=O)[C@H](CO)NC(=O)[C@@H](NC(=O)[C@H](Cc1ccccc1)NC(=O)[C@@H](NC(=O)CNC(=O)[C@H](CCC(=O)O)NC(=O)[C@H](C)NC(=O)[C@@H](N)Cc1cnc[nH]1)[C@@H](C)O)[C@@H](C)O)C(C)C)C(=O)N[C@@H](CCC(=O)O)C(=O)N[C@@H](Cc1ccccc1)C(=O)N[C@H](C(=O)N[C@@H](C)C(=O)N[C@@H](Cc1c[nH]c2ccccc12)C(=O)N[C@@H](CC(C)C)C(=O)N[C@H](C(=O)N[C@@H](CCCNC(=N)N)C(=O)NCC(=O)N[C@@H](CCCNC(=N)N)C(=O)NCC(=O)O)C(C)C)[C@@H](C)CC)C(=O)O [LIRAGLUTIDE]	–	13.1	Active	411
